Laboratory results taken from PMC5003509 (Journal of Medicinal Chemistry, 2015).

Legend:
[1] = Metabolic stability in mouse liver microsomes, glucuronidation; format: in vitro ADME; details: in the presence of UDPGA
[2] = In vivo pharmacokinetics in CD1 mice; details: male, CD1, mouse, plasma, iv, 10 mg/kg
[3] = Metabolic stability in mouse liver microsomes, CYP-mediated; format: in vitro ADME; details: cofactor for CYP-dependent oxidation
[4] = Effect on plasma pharmacokinetics of oral D-serine in mice; details: 11h (30 mg/kg, po) with D-serine (30 mg/kg, po)
[5] = target: hERG channel (Homo sapiens, UniProt Q12809); assay: hERG channel assay; details: concentrations up to 25 μM
[6] = system: NMDA receptor (phencyclidine); assay: NMDA receptor; format: binding; details: at 10 μM
[7] = system: Salmonella typhimurium strain (TA100); assay: Ames test; format: cell-based; details: TA100, in the presence or absence of metabolic activation by S9 mixture
[8] = system: NMDA receptor (agonist); assay: NMDA receptor; format: binding; details: at 10 μM
[9] = system: glycine receptor (strychnine sensitive); assay: Glycine receptor; format: binding; details: at 10 μM
[10] = target: recombinant human DAAO (Homo sapiens, UniProt P14920); assay: In vitro DAAO assay; format: biochemical
[11] = system: NMDA receptor (MK801); assay: NMDA receptor; format: binding; details: at 10 μM

Chain of recombinant human DAAO (P14920 whole entry): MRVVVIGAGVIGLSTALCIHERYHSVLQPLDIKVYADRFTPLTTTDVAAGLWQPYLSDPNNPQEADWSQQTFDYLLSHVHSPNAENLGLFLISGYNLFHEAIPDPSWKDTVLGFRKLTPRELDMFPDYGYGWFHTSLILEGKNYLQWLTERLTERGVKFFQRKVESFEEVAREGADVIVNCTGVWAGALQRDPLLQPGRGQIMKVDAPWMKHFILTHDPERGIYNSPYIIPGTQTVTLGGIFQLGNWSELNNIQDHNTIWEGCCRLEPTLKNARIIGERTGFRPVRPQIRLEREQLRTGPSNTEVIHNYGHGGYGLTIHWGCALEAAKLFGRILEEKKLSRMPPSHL
Chain of hERG channel (Q12809 whole entry): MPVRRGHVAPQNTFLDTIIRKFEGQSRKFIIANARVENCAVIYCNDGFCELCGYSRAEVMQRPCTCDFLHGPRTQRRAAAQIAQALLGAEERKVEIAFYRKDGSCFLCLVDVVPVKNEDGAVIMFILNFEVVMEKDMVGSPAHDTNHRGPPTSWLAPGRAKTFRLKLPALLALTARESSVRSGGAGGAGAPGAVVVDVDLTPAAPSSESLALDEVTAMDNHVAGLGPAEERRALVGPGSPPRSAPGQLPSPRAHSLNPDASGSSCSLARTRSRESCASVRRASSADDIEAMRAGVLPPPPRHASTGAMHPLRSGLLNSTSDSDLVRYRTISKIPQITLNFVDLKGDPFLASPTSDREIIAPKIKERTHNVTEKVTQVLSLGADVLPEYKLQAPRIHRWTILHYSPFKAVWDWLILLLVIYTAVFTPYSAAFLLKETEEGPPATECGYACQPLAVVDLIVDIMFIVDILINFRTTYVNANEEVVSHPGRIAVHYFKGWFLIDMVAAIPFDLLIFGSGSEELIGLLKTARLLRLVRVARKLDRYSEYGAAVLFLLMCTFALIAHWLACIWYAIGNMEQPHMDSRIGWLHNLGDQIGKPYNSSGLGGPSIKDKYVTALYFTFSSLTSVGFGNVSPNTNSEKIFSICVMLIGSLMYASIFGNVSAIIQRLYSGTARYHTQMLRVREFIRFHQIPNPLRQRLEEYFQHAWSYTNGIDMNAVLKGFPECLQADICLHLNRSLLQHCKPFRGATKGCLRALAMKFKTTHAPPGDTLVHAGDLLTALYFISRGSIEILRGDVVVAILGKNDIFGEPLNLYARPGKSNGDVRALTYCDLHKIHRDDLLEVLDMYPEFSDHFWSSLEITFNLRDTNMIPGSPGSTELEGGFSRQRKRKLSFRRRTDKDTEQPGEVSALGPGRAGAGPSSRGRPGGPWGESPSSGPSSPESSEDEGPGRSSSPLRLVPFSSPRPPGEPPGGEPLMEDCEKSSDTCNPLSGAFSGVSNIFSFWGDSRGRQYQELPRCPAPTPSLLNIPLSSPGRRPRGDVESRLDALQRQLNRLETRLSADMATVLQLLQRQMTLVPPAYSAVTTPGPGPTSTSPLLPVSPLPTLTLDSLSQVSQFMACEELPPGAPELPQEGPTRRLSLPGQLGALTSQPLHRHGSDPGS

O=c1[nH]nc(CCc2cc(F)cc(F)c2)cc1O [8b, reference compound]
glucuronidation in mouse liver microsomes [1]: some resistance to glucuronidation
AUC(0-t) [2]: 12700 ng·h/mL

O=c1[nH]c(=O)n(CCc2ccccc2)nc1O [11e, 6-Hydroxy-2-phenethyl-1,2,4-triazine-3,5(2H,4H)-dione]
glucuronidation in mouse liver microsomes [1]: completely resistant to glucuronidation
stability in mouse liver microsomes in the presence of NADPH [3]: stable

O=c1[nH]c(=O)n(Cc2cccc3ccccc23)nc1O [11h, 6-Hydroxy-2-(naphthalen-1-ylmethyl)-1,2,4-triazine-3,5(2H,4H)-dione]
effect on plasma clearance of D-serine [4]: substantially reduced
hERG channel inhibition [5]: no inhibition at concentrations up to 25 μM
inhibition, NMDA receptor (phencyclidine) [6]: ≤5% inhibition at 10 μM
mutagenicity [7]: No evidence of mutagenicity
inhibition, NMDA receptor (agonist) [8]: ≤5% inhibition at 10 μM
glucuronidation in mouse liver microsomes [1]: completely resistant to glucuronidation
inhibition, glycine receptor (strychnine sensitive) [9]: ≤5% inhibition at 10 μM
effect of FAD concentration on IC50 ([10]; escalation of FAD concentration from 10 to 100 μM): did not affect IC50 value
mode of inhibition ([10]; versus D-serine, double reciprocal plot): competitive inhibition
inhibition, NMDA receptor (MK801) [11]: ≤5% inhibition at 10 μM
stability in mouse liver microsomes in the presence of NADPH [3]: stable

O=c1cc(CSc2ccc(Cl)c(Cl)c2)occ1O [compound 7, reference compound]
glucuronidation in mouse liver microsomes [1]: extensively glucuronidated

O=c1[nH]c(=S)n(CCc2ccccc2)nc1O [compound 30, 6-Hydroxy-2-phenethyl-3-thioxo-3,4-dihydro-1,2,4-triazin-5(2H)-one]
glucuronidation in mouse liver microsomes [1]: metabolically stable against glucuronidation

O=c1[nH]c(=O)n(CCc2ccccc2)cc1O [compound 32, 5-Hydroxy-1-phenethylpyrimidine-2,4(1H,3H)-dione]
glucuronidation in mouse liver microsomes [1]: fully glucuronidated within 60 min
